Target: T1, rat NaPi-2b (Rattus norvegicus, UniProt Q9JJ09)
T1 construct: expressed in transfected cells; host or cells: Xenopus oocytes injected with cRNA
T1 sequence (Q9JJ09 1-695): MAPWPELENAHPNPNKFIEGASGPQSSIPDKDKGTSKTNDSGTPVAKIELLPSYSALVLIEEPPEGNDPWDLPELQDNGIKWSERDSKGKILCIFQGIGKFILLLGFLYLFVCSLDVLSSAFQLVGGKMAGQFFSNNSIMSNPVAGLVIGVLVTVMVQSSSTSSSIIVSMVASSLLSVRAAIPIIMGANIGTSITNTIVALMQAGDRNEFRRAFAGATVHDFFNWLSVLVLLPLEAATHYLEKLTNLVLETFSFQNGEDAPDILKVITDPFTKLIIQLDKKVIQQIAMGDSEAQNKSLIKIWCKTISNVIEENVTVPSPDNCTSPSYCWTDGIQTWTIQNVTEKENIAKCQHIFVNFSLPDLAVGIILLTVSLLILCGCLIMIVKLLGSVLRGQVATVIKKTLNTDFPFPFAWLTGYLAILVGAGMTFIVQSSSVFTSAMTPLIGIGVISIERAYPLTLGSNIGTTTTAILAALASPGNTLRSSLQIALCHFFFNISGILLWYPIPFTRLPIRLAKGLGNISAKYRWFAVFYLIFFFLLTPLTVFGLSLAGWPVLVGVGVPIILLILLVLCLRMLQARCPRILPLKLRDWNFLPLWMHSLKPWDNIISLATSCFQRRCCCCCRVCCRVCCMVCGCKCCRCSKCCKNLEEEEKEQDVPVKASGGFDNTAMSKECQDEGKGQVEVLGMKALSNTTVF
Assay: Sodium-dependent phosphate uptake of Xenopus oocytes which expressed NaPi-2b (32P)
Format: cell-based
Conditions: for IC50: Xenopus oocytes expressing rat NaPi-2b, 32P radioactive phosphorus, read-out: IC50 (phosphate uptake inhibitory activity)
In short: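 Rat small-intestine NaPi-2b cRNA injected into Xenopus oocytes, expressed for 2 days. Sodium-dependent phosphate uptake measured with 32P; % inhibition at 300 and 100 μM taken from the same inhibition curve.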

| IC50 [µM] | inhibition at 300 µM (phosphate uptake, oocytes expressing rat NaPi-2b, 300 μM, determined from inhibition curve) [%] | Compound |
| --- | --- | --- |
| 10.6 |  | CCSCCNCc1ccc(C(=O)Nc2ccc(Br)cc2C(=O)N/N=C/c2cccc(F)c2)cc1 [Compound 768, N-[4-Bromo-2-(3-fluoro-benzylidene-hydrazinocarbonyl)-phenyl]-4-[(2-ethylsulfanyl-ethylamino)-methyl]-benzamide] |
| 29.1 |  | CCN(CC)CCN(C)Cc1cccc(C(=O)Nc2cc(OCCOC)c(OCCOC)cc2C(=O)N/N=C/c2cccc(F)c2)c1 [Compound 1028, 3-{[(2-Diethylamino-ethyl)-methyl-amino]-methyl}-N-[2-(3-fluoro-benzylidene-hydrazinocarbonyl)-4,5-bis-(2-methoxy-ethoxy)-phenyl]-benzamide] |
| 0.32 |  | Cc1ccc(/C=N/NC(=O)c2cc(Br)ccc2NC(=O)c2ccco2)cc1C [Compound 155, Furan-2-carboxylic acid [4-bromo-2-(3,4-dimethyl-benzylidene-hydrazinocarbonyl)-phenyl]-amide] |
| 9.42 |  | Cc1cc(/C=N/NC(=O)c2cc(Br)ccc2NC(=O)c2cccnc2)oc1C [Compound 220, N-[4-Bromo-2-(4,5-dimethyl-furan-2-ylmethylene-hydrazinocarbonyl)-phenyl]-nicotinamide] |
| 1.89 |  | O=C(Nc1ccc(Cl)cc1C(=O)N/N=C/c1ccc(OC(F)(F)F)cc1)c1cccc(CSCC(O)CO)c1 (stereo not shown) [Compound 1012, N-[4-Chloro-2-(4-trifluoromethoxy-benzylidene-hydrazinocarbonyl)-phenyl]-3-(2,3-dihydroxy-propylsulfanylmethyl)-benzamide] |
| 4.47 |  | Cc1ccc(/C=N/n2c(-c3cccc(CSCCO)c3)nc3ccc(Br)cc3c2=O)cc1 [Compound 696, 6-Bromo-2-[3-(2-hydroxy-ethylsulfanylmethyl)-phenyl]-3-[(4-methyl-benzylidene-)-amino]-3H-quinazolin-4-one] |
| 0.66 |  | O=C(Nc1ccc(N2CCCCC2)cc1C(=O)N/N=C/c1cccc(F)c1)c1cccc(CN2CCC(O)CC2)c1 [Compound 873, N-[2-(3-Fluoro-benzylidene-hydrazinocarbonyl)-4-piperidin-1-yl-phenyl]-3-(4-hydroxy-piperidin-1-ylmethyl)-benzamide] |
| 41.2 |  | COc1ccc(/C=N/NC(=O)c2cc(Br)ccc2NC(=O)c2ccc(CN3CCN(CC(=O)N4CCOCC4)CC3)cc2)cc1 [Compound 307, N-[4-Bromo-2-(4-methoxy-benzylidene-hydrazinocarbonyl)-phenyl]-4-[4-(2-morpholin-4-yl-2-oxo-ethyl)-piperazin-1-ylmethyl]-benzamide] |
| 16 |  | Cc1ccc(/C=N/NC(=O)c2cccnc2NC(=O)c2cccc(CN(CC(C)O)CC(C)O)c2)cc1C (stereo not shown) [Compound 966, 3-{[Bis-(2-hydroxy-propyl)-amino]-methyl}-N-[3-(3,4-dimethyl-benzylidene-hydrazinocarbonyl)-pyridin-2-yl]-benzamide] |
| 27.1 |  | CN(CCO)Cc1ccc(C(=O)Nc2ccc(Cl)cc2C(=O)N/N=C/c2cccc(O)c2)cc1 [Compound 420, N-[4-Chloro-2-(3-hydroxy-benzylidene-hydrazinocarbonyl)-phenyl]-4-{[(2-hydroxy-ethyl)-methyl-amino]-methyl}-benzamide] |
| 1.07 |  | Cc1ccc(/C=N/NC(=O)c2c(C)csc2NC(=O)c2cccc(CSCCCO)c2)cc1 [Compound 558, 3-(3-Hydroxy-propylsulfanylmethyl)-N-[4-methyl-3-(4-methyl-benzylidene-hydrazinocarbonyl)-thiophen-2-yl]-benzamide] |
| 6.18 |  | O=C(Nc1ccc(Br)cc1C(=O)N/N=C/c1cccc(O)c1)c1ccc(F)cc1 [Compound 109, N-[4-Bromo-2-(3-hydroxy-benzylidene-hydrazinocarbonyl)-phenyl]-4-fluoro-benzamide] |
| < 3 |  | CCN(CC)CCN(C)Cc1cccc(C(=O)Nc2ccc(I)cc2C(=O)N/N=C/c2ccc(F)cc2)c1 [Compound 473, 3-{[(2-Diethylamino-ethyl)-methyl-amino]-methyl}-N-[2-(4-fluoro-benzylidene-hydrazinocarbonyl)-4-iodo-phenyl]-benzamide] |
| 15.8 |  | COc1cccc(/C=N/NC(=O)c2cc(Br)ccc2NC(=O)c2ccc(CN3CCC(O)CC3)cc2)c1 [Compound 331, N-[4-Bromo-2-(3-methoxy-benzylidene-hydrazinocarbonyl)-phenyl]-4-(4-hydroxy-piperidin-1-ylmethyl)-benzamide] |
| 5.57 |  | CCN(CCO)Cc1cccc(C(=O)Nc2ccc(Cl)cc2C(=O)N/N=C/c2ccc(O)cc2)c1 [Compound 431, N-[4-Chloro-2-(4-hydroxy-benzylidene-hydrazinocarbonyl)-phenyl]-3-{[ethyl-(2-hydroxy-ethyl)-amino]-methyl}-benzamide] |
| 36.4 |  | CN(CCCN(C)Cc1cccc(C(=O)Nc2ccc(Cl)cc2C(=O)N/N=C/c2cccc(F)c2)c1)Cc1cccc(C(=O)Nc2ccc(Cl)cc2C(=O)N/N=C/c2cccc(F)c2)c1 [Compound 685, N1-[4-Chloro-2-({2-[(E)-1-(3-fluorophenyl)methylidene]hydrazino}carbonyl}phenyl}-3-{[{3-[(3-{[4-chloro-2-({2-[(E)-1-(3-fluorophenyl)methylidene]hydrazino}carbonyl}-anilino}carbonyl}benzyl}(methyl)amino)propyl)(methyl)amino]methyl]-benzamide] |
| < 1 |  | O=C(Nc1ccc(N2CCSCC2)cc1C(=O)N/N=C/c1ccc(Cl)c(C(F)(F)F)c1)c1cccc(CSCCO)c1 [Compound 927, N-[2-(4-Chloro-3-trifluoromethyl-benzylidene-hydrazinocarbonyl)-4-thiomorpholin-4-yl-phenyl]-3-(2-hydroxy-ethylsulfanylmethyl)-benzamide] |
| 2.55 |  | COc1cc(OC)cc(C(=O)Nc2ccc(Br)cc2C(=O)N/N=C/c2cccc(F)c2)c1 [Compound 114, N-[4-Bromo-2-(3-fluoro-benzylidene-hydrazinocarbonyl)-phenyl]-3,5-dimethoxy-benzamide] |
|  | 54.9 | CCN(CC)Cc1cccc(C(=O)Nc2sc(CN3CCCCC3)c(C)c2C(=O)N/N=C/c2ccc(OC)cc2)c1 [Compound 957, 3-Diethylaminomethyl-N-[3-(4-methoxy-benzylidene-hydrazinocarbonyl)-4-methyl-5-piperidin-1-ylmethyl-thiophen-2-yl]-benzamide] |
| < 3 |  | O=C(Nc1ccc(Br)cc1C(=O)N/N=C/c1cccc(F)c1)c1ccc(CSCCO)cc1 [Compound 261, N-[4-Bromo-2-(3-fluoro-benzylidene-hydrazinocarbonyl)-phenyl]-4-(2-hydroxy-ethylsulfanylmethyl)-benzamide] |
| 22.2 |  | CCN(CCO)Cc1ccc(C(=O)Nc2ccc(Cl)cc2C(=O)N/N=C/c2cccc(F)c2)cc1 [Compound 432, N-[4-Chloro-2-(3-fluoro-benzylidene-hydrazinocarbonyl)-phenyl]-4-{[ethyl-(2-hydroxy-ethyl)-amino]-methyl}-benzamide] |
| 13.5 |  | CCOc1cc(/C=N/NC(=O)c2ccccc2NC(=O)c2ccc(OC)c(OC)c2)ccc1O [Compound 37, N-[2-(3-Ethoxy-4-hydroxy-benzylidene-hydrazinocarbonyl)-phenyl]-3,4-dimethoxy-benzamide] |
| 11.1 |  | COc1ccc(C(=O)Nc2ccc(Br)cc2C(=O)N/N=C/c2cccn2C)cc1OC [Compound 201, N-[4-Bromo-2-(1-methyl-1H-pyrrol-2-ylmethylene-hydrazinocarbonyl)-phenyl]-3,4-dimethoxy-benzamide] |
| 7.69 |  | Cc1cccc(/C=N/NC(=O)c2cc(Br)ccc2NC(=O)c2ccc(CN3CCC(CO)CC3)cc2)c1 [Compound 334, N-[4-Bromo-2-(3-methyl-benzylidene-hydrazinocarbonyl)-phenyl]-4-(4-hydroxymethyl-piperidin-1-ylmethyl)-benzamide] |
| 7.58 |  | CCN(CC)CCNCc1ccc(C(=O)Nc2ccc(Br)cc2C(=O)N/N=C/c2ccc(F)cc2)cc1 [Compound 295, N-[4-Bromo-2-(4-fluoro-benzylidene-hydrazinocarbonyl)-phenyl]-4-[(2-diethylamino-ethylamino)-methyl]-benzamide] |
| 9.23 |  | COc1ccc(/C=N/NC(=O)c2c(C)csc2NC(=O)c2cccc(CN3CCC(CO)CC3)c2)cc1 [Compound 604, 3-(4-Hydroxymethyl-piperidin-1-ylmethyl)-N-[3-(4-methoxy-benzylidene-hydrazinocarbonyl)-4-methyl-thiophen-2-yl]-benzamide] |
| 42 |  | COc1ccc(C(=O)Nc2ccccc2C(=O)N/N=C/c2cccnc2)cc1 [Compound 112, 4-Methoxy-N-[2-(pyridin-3-ylmethylene-hydrazinocarbonyl)-phenyl]-benzamide] |

| Compound | IC50 [µM] | inhibition at 300 µM (phosphate uptake, oocytes expressing rat NaPi-2b, 300 μM, determined from inhibition curve) [%] |
| --- | --- | --- |
| O=C(Nc1ccc(OCCCCF)cc1C(=O)N/N=C/c1ccc(Cl)c(C(F)(F)F)c1)c1cccc(CSCCO)c1 [Compound 1054, N-[2-(4-Chloro-3-trifluoromethyl-benzylidene-hydrazinocarbonyl)-4-(4-fluoro-butoxy)-phenyl]-3-(2-hydroxy-ethylsulfanylmethyl)-benzamide] | < 1 |  |

— patent US8134015B2, “Compound inhibiting in vivo phosphorous transport and medicine containing the same” (Kyowa Hakko Kirin Co., Ltd., priority 2003, dated 2012)
